Laboratory results from patent US20100008932A1, “USE OF SOLUBLE CD160 TO SUPPRESS IMMUNITY” (INSERM (Institut National de la Sante et de la Recherche …, priority 2006, published 2010).

Columns and labels:
[1] = tested on: CD160 cell surface expression on IL-15-activated PB-NK lymphocytes; assay: Inhibition of the GPI-anchored CD160 cleavage: flow cytometry of membrane-bound CD160 on IL-15-activated PB-NK cells; type: cell-based, human; conditions: 8-12 h after 72 h IL-15, PB-NK cells, anti-CD160 mAb BY55 flow cytometry
Description: The antibodies used in this study were the following: anti-Flag M2 mAb (Sigma, St Quentin Fallavier, France), rabbit anti-GPI-phospholipase D (Caltag laboratories, Burlingame, Calif.), anti-CD56 mAb (Beckman-Coulter, Marseille, France), and anti-CD160 mAb (BY55 (IgM) and CL1-R2 (IgG1), produced locally). Irrelevant isotype-matched antibodies were used as negative controls. FITC- or PE-conjugated goat anti-mouse IgG or IgM (Beckman-Coulter), or coat anti-rabbit IgG (Caltag laboratories) were utilized as secondary reagents. Cells were phenotyped by indirect i munofluorescence. Briefly, the cells were incubated with the specific mAb for 30 min at 4° C., washed twice in PBS, and further incubated with the appropriated FITC- or PE-labeled secondary antibodies. After washing, cells were analyzed by flow cytometry on an EPICS XL apparatus (Beckman-Coulter). For intracellular staining, the cells were permeabilized in saponin buffer (PBS/0.1% BSA/0.1% saponin) (Sigma) prior to staining, and all subsequent steps were performed in saponin buffer, as described above.
The phospholipase inhibitors U73122, U73343 and 1,10 phenanthroline (1,10 PNT) were purchased from Sigma. 3×10^5/ml PB-NK cells were cultured for 72 h in RPMI 1640 supplemented with 10% heat-inactivated human serum, penicillin/streptomycin, L-glutamine and IL-15 (10 ng/ml; PeproTech, Levallois-Perret, France). […]

[2] = tested on: release of soluble CD160 by IL-15-stimulated PB-NK cells; assay: Anti-CD160 immunoprecipitation and immunoblotting of soluble CD160 in PB-NK cell culture supernatant; type: cell-based, human; conditions: IL-15-stimulated PB-NK cells cultured in the presence of 1,10-PNT; CL1-R2 immunoprecipitation and Western blot
Description: Culture medium (10 ml) from transfected COS7 cells was incubated with 5 μg of anti-Flag M2 mAb for 1 h 30 at 4° C., and immune complexes were collected with 20 μl of Protein G-Sepharose beads. Alternatively, 2×10^7 control or IL-15-activated PB-NK lymphocytes were cultured for 24-48 h in 10 ml of RPMI 1640 medium without serum. Culture supernatants were collected and incubated with CL1-R2 mAb (10 μg per test) followed by protein G-Sepharose beads. After washes, the precipitated proteins were separated by SDS-8% PAGE. The proteins were then transferred onto a nitrocellulose membrane and subjected to Western blot analysis using the anti-CD160 (CL1-R2, 5 μg/ml) or anti-Flag M2 (5 μg/ml) mAb. HRP-conjugated goat anti-mouse antibodies (Jackson Immunoresearch, Westgrove, Pa.) were used as secondary antibodies, and the immunoreactive proteins were visualized using an ECL kit (Amersham Biosciences).

Compound | effect on IL-15-induced down-modulation of CD160 cell surface expression ([1]; 1,10 PNT 10 μM) | soluble CD160 protein band immunoprecipitated from culture supernatant [2] | effect on IL-15-induced down-modulation of CD160 cell surface expression ([1]; U73122 2 μM)
O.c1cnc2c(c1)ccc1cccnc12 [1,10 PNT, 1,10-phenanthroline monohydrate] | partially impaired | no protein band is immunoprecipitated | –
COc1ccc2c(c1)CC[C@@H]1[C@@H]2CC[C@]2(C)[C@@H](NCCCCCCN3C(=O)C=CC3=O)CC[C@@H]12 [U73122] | – | – | not affected
